The text below walks through data of PubChem BioAssay (NCI).

Experiment in all cases: NCI-60 cell line screen, 48 h
In test [1] the test system is 786-0 renal.
The test system of test [2] is ACHN renal.
Test [3] concerns CAKI-1 renal.
Test [4] concerns OVCAR-3 ovarian.
Test [5] has as its system SR leukemia.
Test [6] concerns TK-10 renal.
In test [7] the test system is CCRF-CEM leukemia.
Test [8] has as its system MDA-MB-435.
Test [9] deals with NCI/ADR-RES ovarian.

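1) Cells in 96-well plates. 2) Compound, 48 h, 5 concentrations. 3) Linear interpolation between surrounding doses. 4) Unreached endpoint = highest concentration. GI50: concentration for 50% inhibition of growth. TGI denotes the concentration required for complete inhibition of growth.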

As for `N#Cc1c(CC(=O)O)cc(=O)n2c1[nH]c1ccccc12`, the TGI in test [1], in [2], in [3], in [4], in [5] and in test [6] was more than 100 µM each time.
Take `Cc1ccccc1NC(=O)CC(=O)NNCC(=O)Nc1nnc(-c2ccccc2)s1`: the TGI in test [1], in test [2], in test [3], in test [4], in test [5] and in test [6] was more than 100 µM each time.
As to `O=C(CC1(O)C(=O)Nc2c(Cl)ccc(Cl)c21)c1ccc(Cl)cc1` (configuration not stated), the TGI in test [1] was 32.1 µM; in [2], 38.7 µM; in test [3], more than 100 µM; in test [4], 47.4 µM; in [6], more than 100 µM.
As to `CN(C)CCNC(=O)c1cccc2c1nc(-c1cccnc1)c1ccccc12`, the TGI in test [1] came out at 24.6 µM; in test [2], 14.4 µM; in test [3], 85.7 µM; in [7], 43.5 µM; in test [4], 42 µM; in test [6] it was 9.74 µM.
Regarding `O/N=C1/C(=C/c2ccc(OCc3ccccc3)cc2)CCCC1C(NO)c1ccc(OCc2ccccc2)cc1` (configuration not stated), the TGI is more than 100 µM in test [1]; more than 100 µM in test [2]; 73.8 µM in [3]; more than 100 µM in test [7]; 88.8 µM in test [4]; more than 100 µM in test [5].
`CC1(C)CC(=O)C(C(=O)Nc2cccs2)=C(O)C1`: the TGI in [1] is more than 100 µM; in [2] it was more than 100 µM; in test [3], 43.6 µM; in [7], 95.3 µM; in test [4] it was more than 100 µM; in test [5] it was more than 100 µM. In addition, the TGI in test [6] was more than 100 µM.
As for `COc1cc2c(cc1OCCN1CCN(CCN3C(=O)c4cccc5cccc(c45)C3=O)CC1)N=C[C@@H]1CCCN1C2=O`, the GI50 in test [1] is 18.2 µM; in test [2], 17.2 µM; in test [3], 13.6 µM; in test [7] it was 19900 nM; in [8], 23400 nM; in [9], 11.9 µM. Besides, the GI50 in [4] is 15800 nM; in test [5], 19700 nM; in test [6], 19.9 µM. Also, the TGI came out at 33.4 µM in [1]; 31.5 µM in test [2]; 30.2 µM in test [3]; 39 µM in test [7]; 48700 nM in test [8]; 28.2 µM in [9]. The TGI in test [4] is 33.5 µM; in [5], 41.8 µM; in test [6] it was 37.1 µM.
With `CCOC(=O)C1C(NC(N)=O)N(Cc2ccccc2)C(=O)N1Cc1ccccc1` (configuration not stated), the TGI in test [1], in test [2], in [3], in [7], in test [4] and in [5] was more than 100 µM in each case. The TGI in test [6] was more than 100 µM.
As to `COc1ccc([C@@H]2[C@@H](Oc3ccccc3)C(=O)N2c2cc(OC)c(OC)c(OC)c2)cc1F`, the GI50 in test [1] was 0.198 µM; in [2], 0.0699 µM; in test [7], 204 nM; in test [8], 26.4 nM; in test [9], 0.0949 µM; in test [4], 51.1 nM. In addition, the GI50 in [5] was 77.8 nM; in [6], 6.52 µM. Moreover, the TGI is more than 100 µM in test [1]; more than 100 µM in [2]; more than 100 µM in [7]; 76 nM in test [8]; more than 100 µM in test [9]; more than 100 µM in [4]. The TGI in test [5] and in [6] was more than 100 µM each time.
For the compound `CC(C)(C)C1CC[C@H]2c3c([nH]c4ccccc34)[C@H]3C(=O)N(c4ccc(F)cc4)C(=O)[C@H]3[C@H]2C1` (some centres not stated), the TGI came out at 23.5 µM in test [1]; 27.2 µM in test [2]; 32.5 µM in test [3]; 35.5 µM in test [7]; 31 µM in test [4]; 30.8 µM in test [6].
For the compound `CC(=O)NC(CCCNC(=O)OCc1ccccc1)C(=O)NCc1ccccc1` (configuration not stated), the TGI in [1], in test [2], in [3], in test [7], in test [4] and in [6] was more than 100 µM each time.
With `CN1S(=O)(=O)N(C)P12(N=P(CP(=NP13(N(C)S(=O)(=O)N1C)N(C)S(=O)(=O)N3C)(c1ccccc1)c1ccccc1)(c1ccccc1)c1ccccc1)N(C)S(=O)(=O)N2C`, the TGI in test [1], in test [2], in [3], in test [7], in [4] and in test [6] was more than 100 µM each time.
As for `COc1ccc(C(C)Nc2cc(OC)c(OC)c(OC)c2)cc1` (configuration not stated), the TGI in [1] was more than 100 µM; in test [2], more than 100 µM; in test [3], more than 100 µM; in test [7], more than 100 µM; in test [4], 6.99 µM; in test [5], more than 100 µM. Also, the TGI in test [6] was more than 100 µM.
For the compound `COC1=CC(=O)C(O)=C(CC2(C)C(C)CCC3(C)C2CCCC3(C)C)C1=O` (configuration not stated), the TGI in test [1] stood at 19.1 µM; in [2], 29.5 µM; in [3] it was 16.7 µM; in test [7] it was 11.5 µM; in test [4], 26.5 µM; in test [5], 12.8 µM. For the same compound, the TGI in test [6] amounted to 37.2 µM.
As to `O=C(CCN1CCOCC1)Nc1ccc(Cn2nnc3c2C(=O)c2nnn(Cc4ccc(NC(=O)CCN5CCOCC5)cc4)c2C3=O)cc1`, the GI50 in [1] was more than 100 µM; in test [2] it was more than 100 µM; in [3], more than 100 µM; in test [7], 340 nM; in [8], 324 nM; in [9], more than 100 µM. Further, the values for the GI50 in test [4], in [5] and in test [6] were 333 nM, 1680 nM and more than 100 µM, respectively. The TGI in test [1] was more than 100 µM; in test [2], more than 100 µM; in [3], more than 100 µM; in test [7] it was more than 100 µM; in test [8], 799 nM; in test [9] it was more than 100 µM. Further, the TGI in test [4] was 1.39 µM; in test [5], 7.62 µM; in [6], more than 100 µM.
